biological target: T1, full length SGK1 (Homo sapiens, UniProt O00141); assay: SGK1 inhibition Assay A (Caliper LabChip electrophoretic separation of fluorescent peptide substrate and phosphorylated product); assay type: biochemical; details: Assay A; 20 μM ATP, 40 min incubation; read-out: SGK1 IC50
T1 construct: 125 μM full length SGK1 (Life Technologies Part #PR7358A); purchased Life Technologies PR7358A
T1 sequence (O00141 1-431): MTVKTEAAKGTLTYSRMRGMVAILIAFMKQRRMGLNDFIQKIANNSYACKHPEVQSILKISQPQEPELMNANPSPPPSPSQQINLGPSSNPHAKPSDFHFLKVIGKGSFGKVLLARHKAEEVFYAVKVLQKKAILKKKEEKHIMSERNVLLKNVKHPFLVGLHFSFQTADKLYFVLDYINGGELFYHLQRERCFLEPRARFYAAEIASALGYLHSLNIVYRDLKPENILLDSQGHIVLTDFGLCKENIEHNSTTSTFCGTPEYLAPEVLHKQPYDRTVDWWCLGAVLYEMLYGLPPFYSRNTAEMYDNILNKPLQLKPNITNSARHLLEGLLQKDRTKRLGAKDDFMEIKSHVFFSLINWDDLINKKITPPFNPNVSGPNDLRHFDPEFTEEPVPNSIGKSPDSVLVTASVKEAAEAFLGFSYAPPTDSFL

**Q.** For `CC(=O)N1CCC(Oc2cc(C(F)F)sc2C(=O)N[C@@H]2CCCN(c3cc(-c4ccc(=O)n(CC(F)F)c4)n4ncnc(N)c34)C2)CC1` [Example 414, (R)-3-((1-acetylpiperidin-4-yl)oxy)-N-(1-(4-amino-7-(1-(2,2-difluoroethyl)-6-oxo-1,6-dihydropyridin-3-yl)pyrrolo[2,1-f][1,2,4]triazin-5-yl)piperidin-3-yl)-5-(difluoromethyl)thiophene-2-carboxamide], which IC50 is on record?
**A.** 11 nM

**Q.** With `CC(=O)N1CCC(Oc2cc(C(F)F)sc2C(=O)N[C@@H]2CCCN(c3cc(-c4cnc(C#N)c(C)c4)n4ncnc(N)c34)C2)CC1` [Example 415, (R)-3-((1-acetylpiperidin-4-yl)oxy)-N-(1-(4-amino-7-(6-cyano-5-methylpyridin-3-yl)pyrrolo[2,1-f][1,2,4]triazin-5-yl)piperidin-3-yl)-5-(difluoromethyl)thiophene-2-carboxamide] as the compound, how does the IC50 read?
**A.** 8 nM

**Q.** With `CC(=O)N1CCC(Oc2cc(C(F)F)sc2C(=O)N[C@@H]2CCCN(c3cc(-c4ccc(C#N)nc4)n4ncnc(N)c34)C2)CC1` [Example 416, (R)-3-((1-acetylpiperidin-4-yl)oxy)-N-(1-(4-amino-7-(6-cyanopyridin-3-yl)pyrrolo[2,1-f][1,2,4]triazin-5-yl)piperidin-3-yl)-5-(difluoromethyl)thiophene-2-carboxamide] as the compound, how does the IC50 read?
**A.** 29 nM

**Q.** Which IC50 does the source give for `COC(=O)N1CC=C(c2cc(N3CCC[C@@H](NC(=O)c4sc(Cl)cc4OCC(=O)N4CCCC4)C3)c3c(N)ncnn23)C1` [Example 418, Methyl (R)-3-(4-amino-5-(3-(5-chloro-3-(2-oxo-2-(pyrrolidin-1-yl)ethoxy)thiophene-2-carboxamido)piperidin-1-yl)pyrrolo[2,1-f][1,2,4]triazin-7-yl)-2,5-dihydro-1H-pyrrole-1-carboxylate] here?
**A.** 108 nM

**Q.** For `Nc1ncnn2c(-c3cncnc3)cc(N3CCC[C@@H](NC(=O)c4sc(Cl)cc4OCC(=O)N4CCCC4)C3)c12` [Example 419, (R)-N-(1-(4-amino-7-(pyrimidin-5-yl)pyrrolo[2,1-f][1,2,4]triazin-5-yl)piperidin-3-yl)-5-chloro-3-(2-oxo-2-(pyrrolidin-1-yl)ethoxy) thiophene-2-carboxamide], which IC50 is on record?
**A.** 120 nM

**Q.** How did the IC50 turn out when `N#Cc1ccc(-c2cc(N3CCC[C@@H](NC(=O)c4sc(Cl)cc4OCC(=O)N4CCCC4)C3)c3c(N)ncnn23)cn1` [Example 420, (R)-N-(1-(4-amino-7-(6-cyanopyridin-3-yl)pyrrolo[2,1-f][1,2,4]triazin-5-yl)piperidin-3-yl)-5-chloro-3-(2-oxo-2-(pyrrolidin-1-yl)ethoxy) thiophene-2-carboxamide] was run?
**A.** 13 nM

**Q.** For `Cc1cc(-c2cc(N3CCC[C@@H](NC(=O)c4sc(Cl)cc4OCC(=O)N4CCCC4)C3)c3c(N)ncnn23)cnc1C#N` [Example 421, (R)-N-(1-(4-amino-7-(6-cyano-5-methylpyridin-3-yl)pyrrolo[2,1-f][1,2,4]triazin-5-yl)piperidin-3-yl)-5-chloro-3-(2-oxo-2-(pyrrolidin-1-yl)ethoxy) thiophene-2-carboxamide], which IC50 is on record?
**A.** 11 nM

**Q.** How did the IC50 turn out when `Nc1ncnn2c(-c3ccc(=O)n(CC(F)F)c3)cc(N3CCC[C@@H](NC(=O)c4sc(Cl)cc4OCC(=O)N4CCCC4)C3)c12` [Example 422, (R)-N-(1-(4-amino-7-(1-(2,2-difluoroethyl)-6-oxo-1,6-dihydropyridin-3-yl)pyrrolo[2,1-f][1,2,4]triazin-5-yl)piperidin-3-yl)-5-chloro-3-(2-oxo-2-(pyrrolidin-1-yl)ethoxy) thiophene-2-carboxamide] was run?
**A.** 15 nM

**Q.** Which IC50 does the source give for `COC(=O)N1CC=C(c2cc(N3CCC[C@@H](NC(=O)c4sc(C(F)F)cc4OCCNC(C)=O)C3)c3c(N)ncnn23)C1` [Example 423, Methyl (R)-3-(5-(3-(3-(2-acetamidoethoxy)-5-(difluoromethyl)thiophene-2-carboxamido)piperidin-1-yl)-4-aminopyrrolo[2,1-f][1,2,4]triazin-7-yl)-2,5-dihydro-1H-pyrrole-1-carboxylate] here?
**A.** 30 nM

**Q.** Which IC50 does the source give for `CC(=O)NCCOc1cc(C(F)F)sc1C(=O)N[C@@H]1CCCN(c2cc(-c3cncnc3)n3ncnc(N)c23)C1` [Example 424, (R)-3-(2-acetamidocthoxy)-N-(1-(4-amino-7-(pyrimidin-5-yl)pyrrolo[2,1-f][1,2,4]triazin-5-yl)piperidin-3-yl)-5-(difluoromethyl)thiophene-2-carboxamide] here?
**A.** 49 nM

**Q.** With `CC(=O)NCCOc1cc(C(F)F)sc1C(=O)N[C@@H]1CCCN(c2cc(-c3ccc(C#N)nc3)n3ncnc(N)c23)C1` [Example 425, (R)-3-(2-acetamidocthoxy)-N-(1-(4-amino-7-(6-cyanopyridin-3-yl)pyrrolo[2,1-f][1,2,4]triazin-5-yl)piperidin-3-yl)-5-(difluoromethyl)thiophene-2-carboxamide] as the compound, how does the IC50 read?
**A.** 14 nM

**Q.** Which IC50 does the source give for `CC(=O)NCCOc1cc(C(F)F)sc1C(=O)N[C@@H]1CCCN(c2cc(-c3cnc(C#N)c(C)c3)n3ncnc(N)c23)C1` [Example 426, (R)-3-(2-acetamidoethoxy)-N-(1-(4-amino-7-(6-cyano-5-methylpyridin-3-yl)pyrrolo[2,1-f][1,2,4]triazin-5-yl)piperidin-3-yl)-5-(difluoromethyl)thiophene-2-carboxamide] here?
**A.** 30 nM

**Q.** Which IC50 does the source give for `CC(=O)NCCOc1cc(C(F)F)sc1C(=O)N[C@@H]1CCCN(c2cc(-c3ccc(=O)n(CC(F)F)c3)n3ncnc(N)c23)C1` [Example 427, (R)-3-(2-acetamidoethoxy)-N-(1-(4-amino-7-(1-(2,2-difluoroethyl)-6-oxo-1,6-dihydropyridin-3-yl)pyrrolo[2,1-f][1,2,4]triazin-5-yl)piperidin-3-yl)-5-(difluoromethyl)thiophene-2-carboxamide] here?
**A.** 12 nM

**Q.** Which IC50 does the source give for `COC(=O)NCCOc1cc(C(F)F)sc1C(=O)N[C@@H]1CCCN(c2cc(C3=CCN(C(=O)OC)C3)n3ncnc(N)c23)C1` [Example 428, Methyl (R)-3-(4-amino-5-(3-(5-(difluoromethyl)-3-(2-((methoxycarbonyl)amino)ethoxy)thiophene-2-carboxamido)piperidin-1-yl)pyrrolo[2,1-f][1,2,4]triazin-7-yl)-2,5-dihydro-1H-pyrrole-1-carboxylate] here?
**A.** 21 nM

**Q.** Which IC50 does the source give for `COC(=O)NCCOc1cc(C(F)F)sc1C(=O)N[C@@H]1CCCN(c2cc(-c3cncnc3)n3ncnc(N)c23)C1` [Example 429, methyl (R)-(2-((2-((1-(4-amino-7-(pyrimidin-5-yl)pyrrolo[2,1-f][1,2,4]triazin-5-yl)piperidin-3-yl)carbamoyl)-5-(difluoromethyl)thiophen-3-yl)oxy)ethyl)carbamate] here?
**A.** 60 nM

**Q.** For `COC(=O)NCCOc1cc(C(F)F)sc1C(=O)N[C@@H]1CCCN(c2cc(-c3cnc(C#N)c(C)c3)n3ncnc(N)c23)C1` [Example 431, methyl (R)-(2-((2-((1-(4-amino-7-(6-cyano-5-methylpyridin-3-yl)pyrrolo[2,1-f] [1,2,4]triazin-5-yl)piperidin-3-yl)carbamoyl)-5-(difluoromethyl)thiophen-3-yl)oxy)ethyl)carbamate], which IC50 is on record?
**A.** 14 nM

**Q.** How did the IC50 turn out when `CC(=O)NCCOc1cc(C(F)F)sc1C(=O)N[C@@H]1CCCN(c2cc(-c3ccc(=O)n(CC(F)F)c3)n3ncnc(N)c23)C1` [Example 432, (R)-3-(2-acetamidoethoxy)-N-(1-(4-amino-7-(1-(2,2-difluoro-ethyl)-6-oxo-1,6-dihydropyri-din-3-yl)pyrrolo[2,1-f] [1,2,4]triazin-5-yl)piperidin-3-yl)-5-(difluoromethyl)thio-phene-2-carboxamide] was run?
**A.** 8 nM

**Q.** `CC(=O)N1CC=C(c2cc(N3CCC[C@@H](NC(=O)c4sc(C(F)F)cc4OC4COC4)C3)c3c(N)ncnn23)C1` [Example 433, (R)—N-(1-(7-(1-acetyl-2,5-dihydro-1H-pyrrol-3-yl)-4-aminopyrrolo[2,1-f][1,2,4]triazin-5-yl)piperidin-3-yl)-5-(difluoromethyl)-3-(oxetan-3-yloxy)thiophene-2-carboxamide] was tested. Which IC50 did it give?
**A.** 18 nM

**Q.** `COC(=O)N1CC=C(c2cc(N3CCC[C@@H](NC(=O)c4sc(C(F)F)cc4OC4COC4)C3)c3c(N)ncnn23)C1` [Example 434, methyl (R)-3-(4-amino-5-(3-(5-(difluoromethyl)-3-(oxetan-3-yloxy)thiophene-2-carboxamido)piperidin-1-yl)pyrrolo[2,1-f][1,2,4]triazin-7-yl)-2,5-dihydro-1H-pyrrole-1-carboxylate] was tested. Which IC50 did it give?
**A.** 10 nM

**Q.** Which IC50 does the source give for `N#Cc1ccc(-c2cc(N3CCC[C@@H](NC(=O)c4sc(C(F)F)cc4OC4COC4)C3)c3c(N)ncnn23)cn1` [Example 435, (R)-N-(1-(4-amino-7-(6-cyanopyridin-3-yl)pyrrolo[2,1-f][1,2,4]triazin-5-yl)piperidin-3-yl)-5-(difluoromethyl)-3-(oxetan-3-yloxy)thiophene-2-carboxamide] here?
**A.** 7 nM

**Q.** For `Cc1cc(-c2cc(N3CCC[C@@H](NC(=O)c4sc(C(F)F)cc4OC4COC4)C3)c3c(N)ncnn23)cnc1C#N` [Example 436, (R)-N-(1-(4-amino-7-(6-cyano-5-methylpyridin-3-yl)pyrrolo[2,1-f][1,2,4]triazin-5-yl)piperidin-3-yl)-5-(difluoromethyl)-3-(oxetan-3-yloxy)thiophene-2-carboxamide], which IC50 is on record?
**A.** 12 nM

**Q.** Which IC50 does the source give for `N#Cc1cc(-c2cc(N3CCC[C@@H](NC(=O)c4sc(C(F)F)cc4OC4COC4)C3)c3c(N)ncnn23)ccn1` [Example 437, (R)-N-(1-(4-amino-7-(2-cyanopyridin-4-yl)pyrrolo[2,1-f][1,2,4]triazin-5-yl)piperidin-3-yl)-5-(difluoromethyl)-3-(oxetan-3-yloxy)thiophene-2-carboxamide] here?
**A.** 8 nM
